Reference: patent US20250034185A1 (priority 2021, published 2025)

What follows are compounds tested on plasma enzymes. Conditions: not given.
Throughout, for P5P formed: test concentration or dose not given here.

Row | SMILES | stability in DMSO (stock solution)
1 | Cc1ncc(COP(=O)(N[C@@H](C)C(=O)Oc2ccc3ccccc3c2)Oc2ccccc2)c(C=O)c1O (stereo partly drawn) [Compound 16xiv, (2S)-Naphthalen-2-yl 2-(((4-formyl-5-hydroxy-6-methylpyridin-3-yl)methoxy)(phenoxy)phosphorylamino)propanoate] | unstable in DMSO
2 | Cc1ncc(COP(=O)(NCC(=O)OC(C)C)Oc2ccccc2)c(C=O)c1O (centres unmarked) [Compound 16xv, Isopropyl 2-(((4-formyl-5-hydroxy-6-methylpyridin-3-yl)methoxy)(phenoxy)phosphorylamino)acetate] | unstable in DMSO

Same assay, conditions: Sprague Dawley, rat

Row | SMILES | P5P formed [µM] | relative P5P formed [%]
3 | Cc1ncc(COP(=O)(N[C@@H](C)C(=O)OC(C)C)Oc2ccc(Cl)cc2)c(CN)c1O (stereo partly drawn) [Compound 14v, (2S)-Isopropyl 2-(((4-(aminomethyl)-5-hydroxy-6-methylpyridin-3-yl)methoxy)(4-chlorophenoxy)phosphorylamino)propanoate] | 0.3 | 11.1
4 | Cc1ncc(COP(=O)(NC(CC(F)(F)F)C(=O)OC(C)C)Oc2ccccc2)c(CO)c1O (centres unmarked) [Compound 15xiv, Isopropyl 4,4,4-trifluoro-2-(((5-hydroxy-4-(hydroxymethyl)-6-methylpyridin-3-yl)methoxy)(phenoxy)phosphorylamino)butanoate] | 0.1 | 2.6
5 | Cc1ncc(CO[P@@](=O)(N[C@@H](C)C(=O)OC(C)C)Oc2ccccc2)c(/C=N/C2CCCC2)c1O [Compound 16xxxvi, (S)-Isopropyl 2-((S)-((4-((E)-(cyclopentylimino)methyl)-5-hydroxy-6-methylpyridin-3-yl)methoxy)(phenoxy)phosphorylamino)propanoate] | 3.8 | 152.0
6 | Cc1ncc(COP(=O)(N[C@@H](Cc2ccc(O)cc2)C(=O)OC(C)C)Oc2ccccc2)c(C=O)c1O (stereo partly drawn) [Compound 16xxx, (2S)-Isopropyl 2-(((4-formyl-5-hydroxy-6-methylpyridin-3-yl)methoxy)(phenoxy)phosphorylamino)-3-(4-hydroxyphenyl)propanoate] | 2.2 | 75.9
7 | Cc1ncc(COP(=O)(N[C@@H](C)C(=O)OC2CCCC2)Oc2ccccc2)c(C=O)c1O (stereo partly drawn) [Compound 16xxiv, (2S)-Cyclopentyl 2-(((4-formyl-5-hydroxy-6-methylpyridin-3-yl)methoxy)(phenoxy)phosphorylamino)propanoate] | 2.2 | 129.4
8 | Cc1ccc(OP(=O)(N[C@@H](C)C(=O)OC(C)C)OCc2cnc(C)c(O)c2C=O)cc1 (stereo partly drawn) [Compound 16xxxvii, (2S)-Isopropyl 2-(((4-formyl-5-hydroxy-6-methylpyridin-3-yl)methoxy)(p-tolyloxy)phosphorylamino)propanoate] | 0.3 | 12.0
9 | Cc1ncc(COP(=O)(N[C@@H](C)C(=O)OCc2ccccc2)Oc2ccccc2)c(C=O)c1O (stereo partly drawn) [Compound 16ix, (2S)-Benzyl 2-(((4-formyl-5-hydroxy-6-methylpyridin-3-yl)methoxy)(phenoxy)phosphorylamino)propanoate] | 10.3 | 98.1
10 | Cc1ncc(COP(=O)(N[C@@H](C)C(=O)OC(C)C)Oc2cccc3ccccc23)c(CO)c1O (stereo partly drawn) [Compound 15x, (2S)-Isopropyl 2-(((5-hydroxy-4-(hydroxymethyl)-6-methylpyridin-3-yl)methoxy)(naphthalen-1-yloxy)phosphorylamino)propanoate] | 0 | 0.0
11 | CCC(CC)COC(=O)[C@H](C)NP(=O)(OCc1cnc(C)c(O)c1CO)Oc1ccccc1 (some centres unmarked) [Compound 15xxxiv] | 0 | 0.0
12 | COCCOC(=O)[C@H](C)NP(=O)(OCc1cnc(C)c(O)c1C=O)Oc1ccccc1 (stereo partly drawn) [Compound 16xxxii, (2S)-2-Methoxyethyl 2-(((4-formyl-5-hydroxy-6-methylpyridin-3-yl)methoxy)(phenoxy)phosphorylamino)propanoate] | 4.9 | 144.1
13 | Cc1ncc(COP(=O)(N[C@@H](C)C(=O)OC(C)C)Oc2ccccc2)c(CO)c1O (stereo partly drawn) [Compound 15ii, (S)-Isopropyl 2-((R)-((5-hydroxy-4-(hydroxymethyl)-6-methylpyridin-3-yl)methoxy)(phenoxy)phosphorylamino)propanoate] | 0 | 0.0
14 | [2H]C([2H])(OP(=O)(N[C@@H](C)C(=O)OC(C)C)Oc1ccccc1)c1cnc(C)c(O)c1C=O (some centres unmarked) [Compound 16xxvii] | 2 | 69.0
15 | Cc1ncc(COP(=O)(N[C@@H](C)C(=O)OC2CCCC2)Oc2ccccc2)c(CN)c1O (stereo partly drawn) [Compound 14x, (2S)-Cyclopentyl 2-(((4-(aminomethyl)-5-hydroxy-6-methylpyridin-3-yl)methoxy)(phenoxy)phosphorylamino)propanoate] | 0.3 | 11.1
16 | Cc1ncc(COP(=O)(N[C@@H](C)C(=O)OC(C)C)Oc2ccccc2)c(CN)c1O (stereo partly drawn) [Compound 14, (2S)-Isopropyl 2-(((4-(aminomethyl)-5-hydroxy-6-methylpyridin-3-yl)methoxy)(phenoxy)phosphorylamino)propanoate] | 0 | 0.0
17 | Cc1ncc(COP(=O)(N[C@@H](C)C(=O)OCC2CCCC2)Oc2ccccc2)c(CO)c1O (stereo partly drawn) [Compound 15vii, (2S)-Cyclopentylmethyl 2-(((5-hydroxy-4-(hydroxymethyl)-6-methylpyridin-3-yl)methoxy)(phenoxy)phosphorylamino)propanoate] | 0 | 0.0
18 | Cc1ncc(COP(=O)(N[C@@H](C)C(=O)OC(C)C)Oc2ccc(Br)cc2F)c(C=O)c1O (stereo partly drawn) [Compound 16xxxix, (2S)-Isopropyl 2-((4-bromo-2-fluorophenoxy)((4-formyl-5-hydroxy-6-methylpyridin-3-yl)methoxy)phosphorylamino)propanoate] | 2.3 | 92.0
19 | Cc1ncc(COP(=O)(N[C@@H](Cc2ccc(OCc3ccccc3)cc2)C(=O)OC(C)C)Oc2ccccc2)c(C=O)c1O (stereo partly drawn) [Compound 16xxix, (2S)-Isopropyl 3-(4-(benzyloxy)phenyl)-2-(((4-formyl-5-hydroxy-6-methylpyridin-3-yl)methoxy)(phenoxy)phosphorylamino)propanoate] | 2.4 | 58.5
20 | Cc1ncc(COP(=O)(N[C@@H](C)C(=O)Oc2ccc3c(c2)CCCC3)Oc2ccccc2)c(CN)c1O (stereo partly drawn) [Compound 14xii, (2S)-5,6,7,8-Tetrahydronaphthalen-2-yl 2-(((4-(aminomethyl)-5-hydroxy-6-methylpyridin-3-yl)methoxy)(phenoxy)phosphorylamino)propanoate] | 0.2 | 5.3
21 | Cc1ccc(OC(=O)[C@H](C)NP(=O)(OCc2cnc(C)c(O)c2C=O)Oc2ccccc2)cc1 (stereo partly drawn) [Compound 16xxiii, (2S)-p-Tolyl 2-(((4-formyl-5-hydroxy-6-methylpyridin-3-yl)methoxy)(phenoxy)phosphorylamino)propanoate] | 2 | 74.1
22 | Cc1ncc(COP(=O)(N[C@@H](C)C(=O)OC(C)C)Oc2cccc3ccccc23)c(CN)c1O (stereo partly drawn) [Compound 14ix, (2S)-Isopropyl 2-(((4-(aminomethyl)-5-hydroxy-6-methylpyridin-3-yl)methoxy)(naphthalen-1-yloxy)phosphorylamino)propanoate] | 0.4 | 6.3
23 | Cc1ncc(COP(=O)(N[C@@H](Cc2cn(C(=O)OC(C)(C)C)c3ccccc23)C(=O)OC(C)C)Oc2ccccc2)c(C=O)c1O (stereo partly drawn) [Compound 16xiii, Tert-butyl 3-((2S)-2-(((4-formyl-5-hydroxy-6-methylpyridin-3-yl)methoxy)(phenoxy)phosphorylamino)-3-isopropoxy-3-oxopropyl)-1H-indole-1-carboxylate] | 0.3 | 7.9
24 | Cc1ncc(COP(=O)(N[C@@H](C)C(=O)OCc2ccccc2)Oc2ccccc2)c(/C=N/CCc2ccc(C#N)cc2)c1O (stereo partly drawn) [Compound 16xxxviii, (2S)-Benzyl 2-(((4-((E)-(4-cyanophenethylimino)methyl)-5-hydroxy-6-methylpyridin-3-yl)methoxy)(phenoxy)phosphorylamino)propanoate] | 0.5 | 14.7
25 | Cc1ncc(COP(=O)(N[C@@H](C)C(=O)OCc2ccccc2)Oc2ccccc2)c(CN)c1O (stereo partly drawn) [Compound 14iii, (2S)-Benzyl 2-(((4-(aminomethyl)-5-hydroxy-6-methylpyridin-3-yl)methoxy)(phenoxy)phosphorylamino)propanoate] | 0.7 | 6.7
26 | Cc1ncc(COP(=O)(N[C@@H](Cc2ccc(OCc3ccccc3)cc2)C(=O)OC(C)C)Oc2ccccc2)c(CN)c1O (stereo partly drawn) [Compound 14xiv, (2S)-Isopropyl 2-(((4-(aminomethyl)-5-hydroxy-6-methylpyridin-3-yl)methoxy)(phenoxy)phosphorylamino)-3-(4-(benzyloxy)phenyl)propanoate] | 0.3 | 8.3
